In ChEMBL document CHEMBL3046150, “Quantitative Structure-Activity Relationships of Herbicidal N-Alkyl-N-(4-substituted benzyl)-4-chloro-2-pentenamides against Echinochloa oryzicola” (J Pestic Sci, 1999):

Assay: Lipophilicity, log P of the compound
Type: physicochemical
Conditions: octanol/water

logP (read-out: logP)	Compound	logP
4.68	CC(Cl)/C=C/C(=O)N(Cc1ccc(Cl)cc1)CC(C)C (configuration not stated)	
	CC(C)Oc1cc(-n2nc(C(C)(C)C)oc2=O)c(Cl)cc1Cl [OXADIAZON]	4.78
